Reference: ChEMBL document CHEMBL6115053, “Optimization and Characterization of N-Acetamide Indoles as Antimalarials That Target PfATP4” (J Med Chem, 2025)
Converted amounts (≈) assume the structure as drawn. The source made the active and inactive calls. The rule behind the calls is not given here.

Key:
Plasmodium falciparum [1] = test: Antiplasmodial activity against Plasmodium falciparum 3D7 infected in RBC assessed as reduction in nucleotide level at 5 nM incubated for 5 hrs by LC-MS analysis; type: functional, organism-based
[2] = Metabolic stability in human liver microsome assessed as intrinsic clearance; type: ADME; conditions: microsomes
HepG2 = test: Cytotoxicity against human HepG2 cells assessed as inhibition of cell growth incubated for 48 hrs by celltiterglo assay; type: toxicity, cell-based; conditions: hepg2, 48 h
Plasmodium falciparum [3] = test: Antiplasmodial activity against Plasmodium falciparum 3D7 infected in RBC assessed as reduction in deoxythymidine triphosphate level at 5 nM incubated for 5 hrs by LC-MS analysis; type: functional, organism-based
[4] = Lipophilicity, logD of compound at pH 7.4 by shake-flask method; type: physicochemical; conditions: buffer
Plasmodium falciparum [5] = test: Antimalarial activity against Plasmodium falciparum NF54 infected assessed as inhibition of male gamete formation incubated for 48 hrs by automated bright field microscopic analysis; type: functional, organism-based; conditions: NF54, 48 h
Plasmodium falciparum [6] = test: Antiplasmodial activity against asexual Plasmodium falciparum 3D7 infected in human […] cells assessed as reduction in parasite growth measured for 72 hrs by LDH assay; type: functional, organism-based; conditions: 3D7, 72 h
Plasmodium falciparum [7] = test: Antimalarial activity against Plasmodium falciparum NF54 infected assessed as inhibition of female gamete formation incubated for 48 hrs by automated bright field microscopic analysis; type: functional, organism-based; conditions: NF54, 48 h
Plasmodium knowlesi = test: Antiplasmodial activity against wild type Plasmodium knowlesi YH1 incubated for 30 hrs by SYBR staining based flow cytometry assay; type: functional, organism-based; conditions: YH1, 30 h
Plasmodium falciparum [8] = test: Antiplasmodial activity against wild type Plasmodium falciparum 3D7 incubated for 48 hrs; type: functional, organism-based; conditions: 3D7, 48 h
Plasmodium falciparum [9] = test: Antiplasmodial activity against Plasmodium falciparum 3D7 infected in RBC assessed as reduction in deoxycytidine monophosphate level at 5 nM incubated for 5 hrs by LC-MS analysis; type: functional, organism-based
Plasmodium falciparum [10] = test: Antiplasmodial activity against multidrug resistant Plasmodium falciparum W2mef incubated for 48 hrs by SYBR staining based fluorometer assay; type: functional, organism-based
Plasmodium falciparum [11] = test: Antiplasmodial activity against multi-drug resistant Plasmodium falciparum Dd2; type: functional, organism-based
[12] = Metabolic stability in mouse liver microsome assessed as intrinsic clearance; type: ADME; conditions: microsomes
Plasmodium falciparum [13] = test: Antiplasmodial activity against Plasmodium falciparum 3D7 infected in RBC assessed as reduction in deoxythymidine diphosphate level at 5 nM incubated for 5 hrs by LC-MS analysis; type: functional, organism-based
[14] = Aqueous solubility in PBS buffer at pH 7.4; type: physicochemical
Plasmodium falciparum [15] = test: Antiplasmodial activity against Plasmodium falciparum 3D7 infected in RBC assessed as reduction in pyrimidine-deoxyribonucleotides level at 5 nM incubated for 5 hrs by LC-MS analysis; type: functional, organism-based
Plasmodium falciparum [16] = test: Antiplasmodial activity against multidrug resistant Plasmodium falciparum 7G8 incubated for 48 hrs by SYBR staining based fluorometer assay; type: functional, organism-based; conditions: 7G8, 48 h
Plasmodium falciparum [17] = test: Antiplasmodial activity against multidrug resistant Plasmodium falciparum Cam3.1 incubated for 48 hrs by SYBR staining based fluorometer assay; type: functional, organism-based; conditions: Cam3.1, 48 h
[18] = Metabolic stability in rat hepatocyte […] assessed as intrinsic clearance measured per 10^6 cells; type: ADME, cell-based; conditions: hepatocytes
Plasmodium falciparum [19] = test: Antiplasmodial activity against multidrug-resistant Plasmodium falciparum Dd2 harboring plasmodium falciparum ATP4 I398F/P990R/D1247Y mutant; type: functional, organism-based
Plasmodium falciparum [20] = test: Antiplasmodial activity against multidrug-resistant Plasmodium falciparum Dd2 harboring plasmodium falciparum ATP4 G358S mutant; type: functional, organism-based
Plasmodium falciparum [21] = test: Antiplasmodial activity against Plasmodium falciparum 3D7; type: functional, organism-based
Plasmodium falciparum [22] = test: Antiplasmodial activity against N-(2,6-difluorophenyl)-2-(6-(5-methyl-1,3,4-oxadiazol-2-yl)-1H-indol-1-yl)acetamide-resistant Plasmodium falciparum Dd2 harboring plasmodium falciparum ATP4 D425E mutant; type: functional, organism-based
Plasmodium falciparum [23] = test: Antiplasmodial activity against N-(2,6-difluorophenyl)-2-(6-(5-methyl-1,3,4-oxadiazol-2-yl)-1H-indol-1-yl)acetamide-resistant Plasmodium falciparum Dd2 harboring plasmodium falciparum ATP4 F156L mutant; type: functional, organism-based
Plasmodium falciparum [24] = test: Antiplasmodial activity against N-(2,6-difluorophenyl)-2-(6-(5-methyl-1,3,4-oxadiazol-2-yl)-1H-indol-1-yl)acetamide-resistant Plasmodium falciparum Dd2 harbouring ATP4 genome with 2.8 fold CNV; type: functional, organism-based

**Q.** For COc1cc(NC(=O)Cn2ccc3ccc(-c4nnc(C)o4)cc32)cc(OC)c1OC, which Activity (Plasmodium falciparum [1]) is on record?
**A.** Its Activity is “inactive”.

**Q.** What about the “intrinsic clearance (CLint)” value [2] of the same compound?
**A.** Its value is 42 µL/min/mg.

**Q.** And the CC50 (HepG2)?
**A.** Its CC50 is > 40000 nM.

**Q.** What about the Activity (Plasmodium falciparum [3]) of the same compound?
**A.** The Activity was “inactive”.

**Q.** What about the logD [4] of the same compound?
**A.** The logD was 2.7.

**Q.** What about the EC50 (Plasmodium falciparum [5]) of the same compound?
**A.** The EC50 was 1500 nM.

**Q.** And the EC50 (Plasmodium falciparum [6])?
**A.** Its EC50 is 200 nM.

**Q.** And the EC50 (Plasmodium falciparum [7])?
**A.** Its EC50 is 3400 nM.

**Q.** And the EC50 (Plasmodium knowlesi)?
**A.** The EC50 was 195 nM.

**Q.** And the EC50 (Plasmodium falciparum [8])?
**A.** Its EC50 is 73 nM.

**Q.** What about the Activity (Plasmodium falciparum [9]) of the same compound?
**A.** Its Activity is “inactive”.

**Q.** What about the EC50 (Plasmodium falciparum [10]) of the same compound?
**A.** Its EC50 is 77 nM.

**Q.** And the EC50 (Plasmodium falciparum [11])?
**A.** The EC50 was 99 nM.

**Q.** And the “intrinsic clearance (CLint)” value [12]?
**A.** Its value is 69 µL/min/mg.

**Q.** What about the Activity (Plasmodium falciparum [13]) of the same compound?
**A.** Its Activity is “inactive”.

**Q.** And the solubility kinetic [14]?
**A.** Its solubility kinetic is 5.1 µM (≈ 2.15 µg/mL).

**Q.** And the Activity (Plasmodium falciparum [15])?
**A.** The Activity was “inactive”.

**Q.** What about the EC50 (Plasmodium falciparum [16]) of the same compound?
**A.** Its EC50 is 165 nM.

**Q.** What about the EC50 (Plasmodium falciparum [17]) of the same compound?
**A.** The EC50 was 124 nM.

**Q.** What about the “intrinsic clearance (CLint)” value [18] of the same compound?
**A.** The value was 8.9 uL/min/10^6 cells.

**Q.** Which results are given for Cc1nnc(-c2ccc3ccn(CC(=O)Nc4ccc(F)cc4F)c3c2)o1?
**A.** EC50 (Plasmodium falciparum [19]): 142 nM; EC50 (Plasmodium falciparum [20]): 28 nM; CC50 (HepG2): > 40000 nM; EC50 (Plasmodium falciparum [21]): 16 nM; EC50 (Plasmodium falciparum [22]): 30 nM; EC50 (Plasmodium falciparum [6]): 4250 nM; EC50 (Plasmodium falciparum [23]): 25 nM; EC50 (Plasmodium falciparum [24]): 30 nM

**Q.** With O[C@@H](c1cc(C(F)(F)F)nc2c(C(F)(F)F)cccc12)[C@H]1CCCCN1 (racemic) [(S,R)-MEFLOQUINE] as the compound, how does the EC50 (Plasmodium falciparum [8]) read?
**A.** The EC50 was 23 nM.

**Q.** And the EC50 (Plasmodium falciparum [10])?
**A.** The EC50 was 64 nM.

**Q.** What about the EC50 (Plasmodium falciparum [11]) of the same compound?
**A.** Its EC50 is 35 nM.

**Q.** What about the EC50 (Plasmodium falciparum [17]) of the same compound?
**A.** Its EC50 is 9 nM.
